Measured values published in PubChem BioAssay AID1963451 (Molecular Pharmacology Branch, DTP, NCI, 2024).
Each block holds one compound with its values, some of them ahead of it.

System: 521955-158-R6-J3-PDC complex spheroid growth, % test/control
Test: Anticancer human tumor 521955-158-R6-J3-PDC patient-derived pancreatic carcinoma cell line growth inhibition [Asc]
Conditions: for IC50: curve of first compound; for viability, T/C: stronger effect = lower value
Procedure, shortened: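 Complex solid-tumor spheroids incorporating human endothelial and mesenchymal stem cells received single agents or combinations over half-log dilution ranges anchored to clinical Cmax.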

[1] = second compound 0.00316 µM, first compound 0.0316 µM
[2] = second compound 0.00316 µM, first compound 0.1 µM
[3] = second compound 0.00316 µM, first compound 0.316 µM
[4] = second compound 0.00316 µM, first compound 1 µM
[5] = second compound 0.01 µM, first compound 0.0316 µM
[6] = second compound 0.01 µM, first compound 0.1 µM
[7] = second compound 0.01 µM, first compound 0.316 µM
[8] = second compound 0.01 µM, first compound 1 µM
[9] = second compound 0.0316 µM, first compound 0.0316 µM
[10] = second compound 0.0316 µM, first compound 0.1 µM
[11] = second compound 0.0316 µM, first compound 0.316 µM
[12] = second compound 0.0316 µM, first compound 1 µM
[13] = second compound 0.1 µM, first compound 0.0316 µM
[14] = second compound 0.1 µM, first compound 0.1 µM
[15] = second compound 0.1 µM, first compound 0.316 µM
[16] = second compound 0.1 µM, first compound 1 µM
[17] = second compound 0.316 µM, first compound 0.0316 µM
[18] = second compound 0.316 µM, first compound 0.1 µM
[19] = second compound 0.316 µM, first compound 0.316 µM
[20] = second compound 0.316 µM, first compound 1 µM
[21] = second compound 1 µM, first compound 0.0316 µM
[22] = second compound 1 µM, first compound 0.1 µM
[23] = second compound 1 µM, first compound 0.316 µM
[24] = second compound 1 µM, first compound 1 µM
[25] = second compound 0.00316 µM, first compound 0.00316 µM
[26] = second compound 0.00316 µM, first compound 0.01 µM
[27] = second compound 0.01 µM, first compound 0.00316 µM
[28] = second compound 0.01 µM, first compound 0.01 µM
[29] = second compound 0.0316 µM, first compound 0.00316 µM
[30] = second compound 0.0316 µM, first compound 0.01 µM
[31] = second compound 0.1 µM, first compound 0.00316 µM
[32] = second compound 0.1 µM, first compound 0.01 µM
[33] = second compound 0.316 µM, first compound 0.00316 µM
[34] = second compound 0.316 µM, first compound 0.01 µM
[35] = second compound 1 µM, first compound 0.00316 µM
[36] = second compound 1 µM, first compound 0.01 µM
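Also: spheroids exposed to compounds for 7 days.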
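For viability, T/C in this document: 100% = DMSO vehicle control wells.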

IC50 (second compound 0.00316 µM): > 10000 nM
IC50 (second compound 0.01 µM): > 10000 nM
IC50 (second compound 0.0316 µM): > 10000 nM
IC50 (second compound 0.1 µM): > 10000 nM
IC50 (second compound 0.316 µM): > 10000 nM
IC50 (second compound 1 µM): > 10000 nM
Structure (SMILES): C=CC(=O)N1CCN(c2nc(=O)n(-c3c(C)ccnc3C(C)C)c3nc(-c4c(O)cccc4F)c(F)cc23)C(C)C1 (stereo unspecified) + CNC(C)C(=O)NC1CN(S(=O)(=O)c2cccc(S(=O)(=O)N3CCC4CCC(C(=O)NC(c5ccccc5)c5ccccc5)N4C(=O)C(NC(=O)C(C)NC)C3)c2)CCC2CCC(C(=O)NC(c3ccccc3)c3ccccc3)N2C1=O
viability, T/C [1]: 98.2%
viability, T/C [2]: 110%
viability, T/C [3]: 116%
viability, T/C [4]: 121%
viability, T/C (second compound 0.00316 µM, first compound 3.16 µM): 98.8%
viability, T/C (second compound 0.00316 µM, first compound 10 µM): 80.4%
viability, T/C [5]: 121%
viability, T/C [6]: 85.3%
viability, T/C [7]: 89.8%
viability, T/C [8]: 94.9%
viability, T/C (second compound 0.01 µM, first compound 3.16 µM): 105%
viability, T/C (second compound 0.01 µM, first compound 10 µM): 81.3%
viability, T/C [9]: 95.2%
viability, T/C [10]: 76.5%
viability, T/C [11]: 108%
viability, T/C [12]: 95.1%
viability, T/C (second compound 0.0316 µM, first compound 3.16 µM): 104%
viability, T/C (second compound 0.0316 µM, first compound 10 µM): 70.8%
viability, T/C [13]: 92.2%
viability, T/C [14]: 78.7%
viability, T/C [15]: 88%
viability, T/C [16]: 108%
viability, T/C (second compound 0.1 µM, first compound 3.16 µM): 93%
viability, T/C (second compound 0.1 µM, first compound 10 µM): 66.7%
viability, T/C [17]: 89.7%
viability, T/C [18]: 91.6%
viability, T/C [19]: 79.2%
viability, T/C [20]: 107%
viability, T/C (second compound 0.316 µM, first compound 3.16 µM): 100%
viability, T/C (second compound 0.316 µM, first compound 10 µM): 84.2%
viability, T/C [21]: 81.4%
viability, T/C [22]: 82.5%
viability, T/C [23]: 89.5%
viability, T/C [24]: 88.7%
viability, T/C (second compound 1 µM, first compound 3.16 µM): 94.6%
viability, T/C (second compound 1 µM, first compound 10 µM): 83.5%

IC50 (second compound 0.00316 µM): 113 nM
IC50 (second compound 0.01 µM): 67.5 nM
IC50 (second compound 0.0316 µM): 69.3 nM
IC50 (second compound 0.1 µM): 74.5 nM
IC50 (second compound 0.316 µM): 75.2 nM
IC50 (second compound 1 µM): 50.9 nM
Structure (SMILES): COc1c(OCCCN2CCOCC2)ccc2c3n(c(=NC(=O)c4cnc(N)nc4)nc12)CCN3 + CNC(C)C(=O)NC1CN(S(=O)(=O)c2cccc(S(=O)(=O)N3CCC4CCC(C(=O)NC(c5ccccc5)c5ccccc5)N4C(=O)C(NC(=O)C(C)NC)C3)c2)CCC2CCC(C(=O)NC(c3ccccc3)c3ccccc3)N2C1=O
viability, T/C [25]: 81.4%
viability, T/C [26]: 62.2%
viability, T/C [1]: 60.6%
viability, T/C [2]: 55.5%
viability, T/C [3]: 41.2%
viability, T/C [4]: 23.8%
viability, T/C [27]: 83.7%
viability, T/C [28]: 67.5%
viability, T/C [5]: 54.4%
viability, T/C [6]: 47%
viability, T/C [7]: 40.9%
viability, T/C [8]: 26.4%
viability, T/C [29]: 80.9%
viability, T/C [30]: 63.9%
viability, T/C [9]: 54.4%
viability, T/C [10]: 49.7%
viability, T/C [11]: 41.9%
viability, T/C [12]: 26.6%
viability, T/C [31]: 87.2%
viability, T/C [32]: 61.9%
viability, T/C [13]: 59.5%
viability, T/C [14]: 50%
viability, T/C [15]: 38.4%
viability, T/C [16]: 27.7%
viability, T/C [33]: 68.9%
viability, T/C [34]: 66.6%
viability, T/C [17]: 52.5%
viability, T/C [18]: 48.5%
viability, T/C [19]: 40.5%
viability, T/C [20]: 24.9%
viability, T/C [35]: 77.1%
viability, T/C [36]: 56.4%
viability, T/C [21]: 53%
viability, T/C [22]: 49.1%
viability, T/C [23]: 37.2%
viability, T/C [24]: 24.3%

IC50 (second compound 0.00316 µM): > 100 nM
IC50 (second compound 0.01 µM): > 100 nM
IC50 (second compound 0.0316 µM): > 100 nM
IC50 (second compound 0.1 µM): > 100 nM
IC50 (second compound 0.316 µM): > 100 nM
IC50 (second compound 1 µM): > 100 nM
Structure (SMILES): NC1CCC(NC2CC2c2ccccc2)CC1 (stereo unspecified) + CNC(C)C(=O)NC1CN(S(=O)(=O)c2cccc(S(=O)(=O)N3CCC4CCC(C(=O)NC(c5ccccc5)c5ccccc5)N4C(=O)C(NC(=O)C(C)NC)C3)c2)CCC2CCC(C(=O)NC(c3ccccc3)c3ccccc3)N2C1=O
viability, T/C (second compound 0.00316 µM, first compound 0.000316 µM): 86%
viability, T/C (second compound 0.00316 µM, first compound 0.001 µM): 98.8%
viability, T/C [25]: 95.5%
viability, T/C [26]: 92.6%
viability, T/C [1]: 91.1%
viability, T/C [2]: 82.1%
viability, T/C (second compound 0.01 µM, first compound 0.000316 µM): 94%
viability, T/C (second compound 0.01 µM, first compound 0.001 µM): 85.2%
viability, T/C [27]: 77.6%
viability, T/C [28]: 93%
viability, T/C [5]: 91.4%
viability, T/C [6]: 82.3%
viability, T/C (second compound 0.0316 µM, first compound 0.000316 µM): 98.1%
viability, T/C (second compound 0.0316 µM, first compound 0.001 µM): 93.4%
viability, T/C [29]: 80%
viability, T/C [30]: 93.1%
viability, T/C [9]: 87.8%
viability, T/C [10]: 88.8%
viability, T/C (second compound 0.1 µM, first compound 0.000316 µM): 91.4%
viability, T/C (second compound 0.1 µM, first compound 0.001 µM): 80.8%
viability, T/C [31]: 68.5%
viability, T/C [32]: 86.1%
viability, T/C [13]: 89.6%
viability, T/C [14]: 66.3%
viability, T/C (second compound 0.316 µM, first compound 0.000316 µM): 83.8%
viability, T/C (second compound 0.316 µM, first compound 0.001 µM): 89.7%
viability, T/C [33]: 84.4%
viability, T/C [34]: 89%
viability, T/C [17]: 71%
viability, T/C [18]: 79.7%
viability, T/C (second compound 1 µM, first compound 0.000316 µM): 90.1%
viability, T/C (second compound 1 µM, first compound 0.001 µM): 77.8%
viability, T/C [35]: 76.9%
viability, T/C [36]: 96.5%
viability, T/C [21]: 92.2%
viability, T/C [22]: 83.8%
